According to patent US20060241177A1, “Novel compounds, pharmaceutical compositions containing same, and methods of use for same” (priority 2002, published 2006):
≈ marks a conversion by molar mass, not a printed value. Read-outs that look alike come from different tables or passages of the source.

Columns and labels:
Assay type in all cases: cell-based
[1] = system: Escherichia coli (ATCC #25922); assay: Broth microdilution MIC; settings: 24 hours; for MIC: Escherichia coli, ATCC25922
Experimental: (§1) A broth microdilution assay is used to assess the antimicrobial activity of the compounds. Compounds are tested at twofold serial dilutions, and the concentration that inhibits visible growth (OD600 at 10% of control) is defined as the MIC. Microorganisms tested include Staphylococcus aureus (ATCC #29213), Enterococcus faecalis (ATCC #29212), Pseudomonas aeruginosa (ATCC #27853), and Escherichia coli (ATCC #25922). The assay is performed in two growth media, Mueller Hinton Broth and Trypticase Soy Broth.
(§2) A blood (Tsoy/5% sheep blood) agar plate is inoculated from frozen stocks maintained in T soy broth containing 10% glycerol and incubated overnight at 37° C. Colonies are suspended in sterile broth so that the turbidity matches the turbidity of a 0.5 McFarland standard. The inoculum is diluted 1:10 in sterile broth (Mueller Hinton or Trypticase soy) and 195 ul is dispensed per well of a 96-well plate. The compounds to be tested, dissolved in DMSO, are added to the wells in 5 ul volume at the following concentrations: 25, 12.5, 6.25, 3.125, 1.56 and 0.78 ug/ml in duplicate. Additional concentrations are tested if required. 5 ul of DMSO added to duplicate wells are the vehicle control. Serial dilutions of positive control compounds, vancomycin (E. faecalis and S. aureus) and tobramycin (E. coli and P. aeruginosa), are included in each rum
(§3) After 24 hours of incubation at 37° C., plates are read at OD600 on a Molecular Devices SpectraMax Plus Spectrophotometer. Average OD600 values are computed using SOFTmax Pro Software (Molecular Devices) and MIC values are determined by linear regression analysis using Prism version 3.02 (Graph Pad Software, San Diego). The MIC is defined as the concentration of compound required to produce an OD600 reading equivalent to 10% of the vehicle control reading.

[2] = system: Pseudomonas aeruginosa (ATCC #27853); assay: Broth microdilution MIC; settings: 24 hours; for MIC: Pseudomonas aeruginosa, ATCC27853
Experimental: as §1, §2, §3

[3] = system: Staphylococcus aureus (ATCC #29213); assay: Broth microdilution MIC; settings: 24 hours; for MIC: Staphylococcus aureus, ATCC29213
Experimental: as §1, §2, §3

[4] = system: Enterococcus faecalis (ATCC #29212); assay: Broth microdilution MIC; settings: 24 hours; for MIC: Enterococcus faecalis, ATCC29212
Experimental: as §1, §2, §3

[5] = system: MCF-7 human breast cancer cells; assay: XTT cytotoxicity assay; settings: MCF7, MCF-7 cells, 72 hours
Experimental: The XTT assay is a non-radioactive alternative for the [^51Cr] release cytotoxicity assay. XTT is a tetrazolium salt that is reduced to a formazan dye only by metabolically active, viable cells. The reduction of XTT is measured spectrophotometrically as OD490-OD650.
To measure the cytotoxicity of specific compounds against cancer cells, 9×10^3 MCF-7 human breast cancer cells, obtained from the American Type Culture Collection are plated per well in 96 well plates in DMEM medium with 10% fetal bovine serum, msulin, penicillin, and streptomycin. Following overnight culture at 37° C. and 5% CO2, the compounds to be tested, dissolved in DMSO, are added to the wells in 1 μl volume at the following concentrations: 80, 40, 20, 10, 5, 2.5, 1.25, and 0.625 μg/ml in triplicate. Additional concentrations are tested if required. 1 μl of DMSO is added to triplicate wells are the vehicle control. C75 is run at 40, 20, […], and 5 μg/ml in triplicate as positive controls.
After 72 hours of incubation, cells are incubated for 4 hours with the XTT reagent as per manufacturer's instructions (Cell Proliferation Kit II (XTT) Roche). Plates are read at OD490 and OD650 on a Molecular Devices SpectraMax Plus Spectrophotometer. Three wells containing the All reagent without cells serve as the plate blank. XTT data are reported as OD490-OD650. Averages and standard error of the mean are computed using SOFTmax Pro software ([…]).
The IC50 for the compounds is defined as the concentration of drug leading to a 50% reduction in OD490-OD650 compared to controls. The OD490-OD650 are computed by the SOFTmax PRO software Molecular Devices) for each compound concentration. IC50 is calculated by linear regression, plotting the FAS activity as percent of control versus drug concentrations. Linear regression, best-fit line, r^2, and 95% confidence intervals are determined using Prism Version 3.0 (Graph Pad Software).

[6] = Trypticase Soy Broth, read-out: Ecoli/Tsoy (MIC)
[7] = Mueller Hinton Broth, read-out: PSAE/MH (MIC)
[8] = Trypticase Soy Broth, read-out: PSAE/Tsoy (MIC)
[9] = Mueller Hinton Broth, read-out: SA/MH (MIC)
[10] = Trypticase Soy Broth, read-out: SA/Tsoy (MIC)
[11] = Mueller Hinton Broth, read-out: EF/MH (MIC)
[12] = Trypticase Soy Broth, read-out: EF/Tsoy (MIC)

| SMILES | MIC [1, 6] | Ecoli/MH (MIC) ([1]; Mueller Hinton Broth) | MIC [2, 7] | MIC [2, 8] | MIC [3, 9] | MIC [3, 10] | MIC [4, 11] | EF/Tsoy (MIC) ([4]; Trypticase Soy Broth) | IC50 [5] | Ecoli/Tsoy (MIC) ([1]; Trypticase Soy Broth) | PSAE/MH (MIC) ([2]; Mueller Hinton Broth) | PSAE/Tsoy (MIC) ([2]; Trypticase Soy Broth) | MIC [4, 12] | EF/MH (MIC) ([4]; Mueller Hinton Broth) | MIC ([1]; Mueller Hinton Broth, read-out: Ecoli/MH (MIC)) | SA/Tsoy (MIC) ([3]; Trypticase Soy Broth) |
| --- | --- | --- | --- | --- | --- | --- | --- | --- | --- | --- | --- | --- | --- | --- | --- | --- |
| C=CCNC(=O)[C@H]1[C@H](CCCCCCCC)OC(=O)[C@@H]1C (racemic) | 155 µg/mL (≈ 525 µM) | Neg | 218 µg/mL (≈ 738 µM) | 160 µg/mL (≈ 542 µM) | 80 µg/mL (≈ 271 µM) | 193 µg/mL (≈ 653 µM) | 84 µg/mL (≈ 284 µM) | Neg | 20.8 ± 7.1 µg/mL (≈ 70.4 µM) | – | – | – | – | – | – | – |
| C=C1C(=O)O[C@@H](CCCCCCCC)[C@@H]1C(=O)NCCO (racemic) | – | Neg | – | – | 44 µg/mL (≈ 148 µM) | 48 µg/mL (≈ 161 µM) | – | – | 4.1 ± 2.2 µg/mL (≈ 13.8 µM) | Neg | Neg | Neg | 77 µg/mL (≈ 259 µM) | Neg | – | – |
| C=CCNC(=O)[C@@H]1C(=C)C(=O)O[C@H]1CCCC (racemic) | – | Neg | – | – | 65 µg/mL (≈ 274 µM) | 96 µg/mL (≈ 405 µM) | 190 µg/mL (≈ 801 µM) | – | 2.4 ± 0.2 µg/mL (≈ 10.1 µM) | Neg | Neg | Neg | 67 µg/mL (≈ 282 µM) | – | – | – |
| C=CCNC(=O)[C@@H]1C(=C)C(=O)O[C@H]1CCCCCCCC (racemic) | – | – | – | – | 9.1 ± 1.9 µg/mL (≈ 31 µM) | 12 ± 0.5 µg/mL (≈ 40.9 µM) | 36 µg/mL (≈ 123 µM) | – | 0.81 ± 0.01 µg/mL (≈ 2.76 µM) | – | Neg | Neg | 25 µg/mL (≈ 85.2 µM) | – | – | – |
| C=CCNC(=O)[C@@H]1C(=C)C(=O)O[C@H]1CCCCCC (racemic) | – | Neg | – | – | 49 µg/mL (≈ 185 µM) | 47 µg/mL (≈ 177 µM) | 103 µg/mL (≈ 388 µM) | – | 1.6 ± 0.1 µg/mL (≈ 6.03 µM) | Neg | Neg | Neg | 38 µg/mL (≈ 143 µM) | – | – | – |
| CCCCCCCCC1OC(=O)[C@@H](C)[C@H]1C(=O)O (some centres unmarked) | – | – | – | – | – | – | – | – | > 80 µg/mL | – | – | – | – | – | – | – |
| C=CCNC(=O)C1=C(C)C(=O)O[C@H]1CCCCCCCC | 199 µg/mL (≈ 678 µM) | Neg | 280 µg/mL (≈ 954 µM) | 137 µg/mL (≈ 467 µM) | 79 µg/mL (≈ 269 µM) | 87 µg/mL (≈ 297 µM) | 115 µg/mL (≈ 392 µM) | – | 27.8 ± 3.8 µg/mL (≈ 94.7 µM) | – | – | – | 203 µg/mL (≈ 692 µM) | – | – | – |
| C=CCNC(=O)[C@H]1[C@H](CCCCCCCC)OC(=O)[C@H]1C (racemic) | – | – | – | – | 107 µg/mL (≈ 362 µM) | – | 91 µg/mL (≈ 308 µM) | – | 59.4 ± 6.4 µg/mL (≈ 201 µM) | Neg | Neg | Neg | 114 µg/mL (≈ 386 µM) | – | 108 µg/mL (≈ 366 µM) | Neg |
| C=C1C(=O)O[C@@H](CCCCCCCC)[C@@H]1C(=O)NCC(=O)O (racemic) | 235 µg/mL (≈ 755 µM) | Neg | – | – | 72 µg/mL (≈ 231 µM) | 52 µg/mL (≈ 167 µM) | 219 µg/mL (≈ 703 µM) | – | > 80 µg/mL | – | Neg | Neg | 215 µg/mL (≈ 690 µM) | – | – | – |
| CCCCCCCCC1OC(=O)[C@H](C)[C@H]1C(=O)O (some centres unmarked) | – | Neg | – | – | 43 µg/mL (≈ 168 µM) | 60 µg/mL (≈ 234 µM) | 109 µg/mL (≈ 425 µM) | – | > 80 µg/mL | Neg | Neg | Neg | 94 µg/mL (≈ 367 µM) | – | – | – |
| C=C1C(=O)O[C@@H](CCCCCCCC)[C@@H]1C(=O)NCC(=O)OC (racemic) | 275 µg/mL (≈ 845 µM) | Neg | – | – | 4.3 µg/mL (≈ 13.2 µM) | 26 µg/mL (≈ 79.9 µM) | 80 µg/mL (≈ 246 µM) | – | 2 ± 0.5 µg/mL (≈ 6.15 µM) | – | Neg | Neg | 245 µg/mL (≈ 753 µM) | – | – | – |
